Measurements taken from patent US10501421B1, “Substituted benzimidazoles as modulators of Ras signaling” (VANDERBILT UNIVERSITY, priority 2017, dated 2019).
Structures can show the parent of a compound that is named as a salt. Where two headings read alike, the source gives them in different places.

Legend:
[1] = target: Ras GEF SOS (Son of Sevenless) (Homo sapiens, UniProt Q07889); test: SOS-mediated nucleotide exchange on Ras (BODIPY-GDP fluorescence); assay type: biochemical; conditions: SOS-mediated exchange of BODIPY-GDP for GTP on Ras
Ras GEF SOS (Son of Sevenless), sequence (P01112 1-166 partner limits assumed, one chain of several): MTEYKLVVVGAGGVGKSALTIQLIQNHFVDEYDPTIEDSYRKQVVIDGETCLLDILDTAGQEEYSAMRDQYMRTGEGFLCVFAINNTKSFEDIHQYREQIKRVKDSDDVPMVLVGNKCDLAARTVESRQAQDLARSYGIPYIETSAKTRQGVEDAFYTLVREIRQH
How it was run: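 Ras loaded with BODIPY-GDP was mixed in buffer with test compound, then GTP and SOS. Fluorescence change from labeled GDP/GTP exchange was followed over time, and rates came from single-exponential fits. EC50 came from a four-parameter fit of mean rate against compound concentration.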

Son of Sevenless (SOS) = target: T1, Son of Sevenless (SOS) (Homo sapiens, UniProt Q07889); test: Binding to SOS, fluorescence polarization anisotropy (FPA) probe displacement; conditions: displacement of FITC-conjugated probe (Example 285), affinity calculated from IC50
T1 sequence (Q07889 564-1049 limits assumed): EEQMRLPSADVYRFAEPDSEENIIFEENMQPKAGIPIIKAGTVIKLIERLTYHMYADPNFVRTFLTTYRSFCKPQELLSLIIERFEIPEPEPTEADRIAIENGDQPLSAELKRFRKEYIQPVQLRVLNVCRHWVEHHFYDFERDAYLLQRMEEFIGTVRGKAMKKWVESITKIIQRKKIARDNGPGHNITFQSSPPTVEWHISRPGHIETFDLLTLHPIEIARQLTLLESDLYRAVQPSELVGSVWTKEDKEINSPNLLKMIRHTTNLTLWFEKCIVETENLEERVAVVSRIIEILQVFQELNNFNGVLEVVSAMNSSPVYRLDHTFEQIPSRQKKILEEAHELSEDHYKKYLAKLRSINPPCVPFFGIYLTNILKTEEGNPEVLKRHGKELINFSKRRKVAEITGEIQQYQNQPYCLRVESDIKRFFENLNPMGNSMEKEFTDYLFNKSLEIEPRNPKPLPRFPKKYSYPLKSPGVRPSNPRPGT
How it was run: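 A FITC-conjugated probe compound was incubated with SOS in buffer, and its displacement was tracked as a change in fluorescence anisotropy across a test-compound dose range. IC50 came from a four-parameter variable-slope fit, and binding affinity was calculated from it.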

[2] = test system: H727 lung cancer cell lines (G12V K-Ras mutation); test: Inhibition of cancer cell proliferation (CellTiter-Glo); assay type: cell-based; conditions: Homo sapiens, NCI-H727, 72 h, read-out: Cell proliferation activity (H727 cancer cell line proliferation IC50)
How it was run: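 H727 cells (K-Ras G12V), 1000/well, plated overnight then exposed to a compound dose range for 3 days at 37 °C. Proliferation by CellTiter-Glo, normalized to DMSO; IC50 from four-parameter variable-slope fit.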

[3] = H727 cells, 3 days treatment, CellTiter-Glo

| EC50 [1] [µM] | Ki (Son of Sevenless (SOS)) [µM] | IC50 [2, 3] [µM] | Structure (SMILES) | IC50 [2] [µM] |
| --- | --- | --- | --- | --- |
| 1 to 5 | > 5 | 5 to 20 | Cc1cnc2nc(N3CCCC(N)C3)n(Cc3ccc(F)c(C)c3)c2c1 (stereo not drawn) [Example 240, 1-(1-(4-fluoro-3-methylbenzyl)-6-methyl-1H-imidazo[4,5-b]pyridin-2-yl)piperidin-3-amine] | – |
| 1 to 5 | > 5 | > 20 | Cc1cnc2nc(N3CCC(N)C3)n(Cc3ccc(F)c(C)c3)c2c1 (stereo not drawn) [Example 241, 1-(1-(4-fluoro-3-methylbenzyl)-6-methyl-1H-imidazo[4,5-b]pyridin-2-yl)pyrrolidin-3-amine] | – |
| < 1 | 0.5 to 1 | 5 to 20 | Cc1cnc2nc(N3CC(CN)C3)n(Cc3ccc(F)c(C)c3)c2c1 [Example 248, (1-(1-(4-fluoro-3-methylbenzyl)-6-methyl-1H-imidazo[4,5-b]pyridin-2-yl)azetidin-3-yl)methanamine] | – |
| 5 to 30 | > 5 | < 1 | Cc1cc(Cn2c(N3CC(CN)C3)nc3ccc(OC(C)C(F)(F)F)nc32)ccc1F (stereo not drawn) [Example 259, (1-(3-(4-fluoro-3-methylbenzyl)-5-((1,1,1-trifluorpropan-2-yl)oxy)-3H-imidazo[4,5-b]pyridin-2-yl)azetidin-3-yl)methanamine] | – |
| 5 to 30 | > 5 | < 1 | Cc1cc(Cn2c(NCC3CNC3)nc3ccc(OC(C)C(F)(F)F)nc32)ccc1F (stereo not drawn) [Example 260, N-(azetidin-3-ylmethyl)-3-(4-fluoro-3-methylbenzyl)-5-((1,1,1-trifluoropropan-2-yl)oxy)-3H-imidazo[4,5-b]pyridin-2-amine] | – |
| < 1 | < 0.5 | 1 to 5 | Cc1cc(-c2ccccc2Cl)c2nc(N3CCNCC3)n(Cc3cc(C)c(F)c(C)c3)c2c1 [Example 267, 4-(2-chlorophenyl)-1-[(4-fluoro-3,5-dimethylphenyl)methyl]-6-methyl-2-piperazin-1-ylbenzimidazole] | – |
| < 1 | 0.5 to 1 | 5 to 20 | Cc1cc(OC2CCNC2)c2nc(N3CCNCC3)n(Cc3cc(C)c(F)c(C)c3)c2c1 (stereo not drawn) [Example 317, 1-(4-fluoro-3,5-dimethylbenzyl)-6-methyl-2-(piperazin-1-yl)-4-(pyrrolidin-3-yloxy)-1H-benzo[d]imidazole] | – |

| Structure (SMILES) | EC50 [1] [µM] | Ki (Son of Sevenless (SOS)) [µM] | IC50 [2, 3] [µM] | IC50 [2] [µM] |
| --- | --- | --- | --- | --- |
| CCC[C@H](N)c1cc(Cl)cc2c1nc(N1CCNCC1)n2Cc1cc(C)c(F)c(C)c1 [Example 164, (S)-1-(6-chloro-1-(4-fluoro-3,5-dimethylbenzyl)-2-(piperazin-1-yl)-1H-benzo[d]imidazol-4-yl)butan-1-amine trifluoroacetate] | 1 to 5 | < 0.5 | – | < 1 |
| Fc1ccc(Cn2c(N3CCNCC3)nc3c(-c4ccnn4-c4ccc(Br)cc4)cc(Cl)cc32)cc1Cl [Example 170, 4-(1-(4-bromophenyl)-1H-pyrazol-5-yl)-6-chloro-1-(3-chloro-4-fluorobenzyl)-2-(piperazin-1-yl)-1H-benzo[d]imidazole trifluoroacetate] | 1 to 5 | < 0.5 | – | 5 to 20 |
